According to PMC11625190 (Synthetic and Systems Biotechnology, 2024):

System: ChAER1
Test: HPLC quantification of 4-hydroxydihydrocinnamaldehyde formation, crude enzyme
Assay type: biochemical, Cephalotaxus harringtonia
Conditions: 1 mM NADPH, 50 mM Tris-HCl pH 7.5, 30 °C, 1 h

O=C/C=C/c1ccc(O)cc1 [p-coumaraldehyde]
Km: 467 µM
